One experiment concerns PDE3. In words: PDE3 inhibition (PDE3/4 IC50). Format: biochemical. To be noted: first value of PDE3/4 pair.
In the next experiment the test system is PDE4. In words: PDE4 inhibition (PDE3/4 IC50). The note with it: second value of PDE3/4 pair. Format: biochemical.
For experiment [1], the system named is ovalbumin-sensitized/-challenged Brown-Norway rat. In words: Late inflammatory airway reaction in the ovalbumin-sensitized/-challenged Brown-Norway rat (BAL). The note with it: summary of the table; i.t.; Roflumilast 0.3 μmol/kg, Pumafentrine 3 μmol/kg, Salmeterol 3 pmol/kg [sic].
Protocol: Sensitization was done by simultaneous injection of Bordetella pertussis suspension i.p. and OVA/AHG suspension s.c. on day 1, 14 and 21. 28 days after start of sensitization, conscious Brown-Norway rats were challenged by inhalation of the aerosolized OVA solution for 1 h (˜20 ml/h). Non-challenged, only sensitized animals were used as baseline control. The drugs (thoroughly mixed with lactose) or the placebo control (lactose) were administered intratracheally (i.t.) as dry powders 1 h before OVA-challenge. 48 h later, OVA-challenged or non-challenged animals were anaesthetized and bronchoalveolar lavage (BAL) was performed using 3×4 ml BAL buffer per animal. The number of total cells and eosinophils in the BAL fluid, and the concentration of protein in the cell-free BAL fluid were determined. Drug-induced relative changes were calculated and statistically analyzed by the Jonckheere Terpstra test.

SMILES strings stand for the structures.

As to `CCOc1cc2c(cc1OC)C(c1ccc(C(=O)N(C(C)C)C(C)C)cc1)=N[C@@H]1CCN(C)C[C@H]21` [Pumafentrine], the results for the IC50 with PDE3 and with PDE4 were 28 nM and 7 nM, respectively. In addition, in experiment [1], the “effect on cell infiltration and protein accumulation in BAL fluid, in words” value (shortened to “effect”) is given as “did not show any significant effects”.

For the molecule `OCc1cc(C(O)CNCCCCCCOCCCCc2ccccc2)ccc1O` (single isomer, unassigned; (+)) [Salmeterol, (+)-4-hydroxy-α^1-[[[6-(4-phenylbutoxy)hexyl]amino]methyl]-1,3-benzenedimethanol], the “effect” value in experiment [1] is listed as “exhibited inhibitory effects”.

Take `O=C(Nc1c(Cl)cncc1Cl)c1ccc(OC(F)F)c(OCC2CC2)c1` [Roflumilast]: the IC50 – broadly, the concentration needed to halve the response being measured – is above 10000 nM in the experiment with PDE3 and 0.7 nM in the experiment on PDE4. For the same molecule, the “effect” value in experiment [1] is reported as “did not show any significant effects”.
